Values quoted from earlier work, collected in patent US20200178572A1 (priority 2017, published 2020).

Details: in vivo

Q: With CC1=CC[C@H]2C[C@@H]1C2(C)C [α-Pinene, (1S,5S)-2,6,6-Trimethylbicyclo[3.1.1]hept-2-ene] as the compound, how does the human pulmonary uptake read?
A: The human pulmonary uptake was 60%.
